Non-standard residues stand in square brackets, D forms with d. Residues, ends and D or L forms follow the SMILES beside them. *: point of attachment. Ala(7-MeO-coumarin-4-yl) = COc1ccc2c(C[C@H](N)C(=O)O)cc(=O)oc2c1; X1 = N[C@@H](Cc1ccc(O)cc1)C(=S)N1CCC[C@H]1C(=O)*

The text below walks through data of PMC11497070 (Chemical Communications (Cambridge, England), 2024).

One data set relates to DPP-4 (dipeptidyl Peptidase IV human, recombinant, expressed in Sf9 cells). Description: 2.31 ng/μL DPP-4 in DPBS buffer and pH 7.6 (PP-based probes also 4.62 ng/μL). The conditions noted are these: 27°C, up to 400 min.
APLEPμ: the cleaved bond result is given as “P-L”.

Regarding A^SPLEPμ, the cleaved bond result is “P-L”.

On to YPIKPμ, for which the cleaved bond entry is on record as “P-I”.

As to YPLKPμ, the cleaved bond entry is listed as “P-L3”.

Consider YPSKPμ, for which the cleaved bond entry is recorded as “P-S”.

For Y^SPIKPμ, the cleaved bond result was “P-I”.

Regarding Y^SPLKPμ, the cleaved bond entry was “P-L3”.

In the case of Y^SPSKPμ, the cleaved bond entry was “P-S”.

In another data set the target is T1, DPP-4 (Homo sapiens, UniProt P27487).
T1 construct: purchased Sigma Aldrich D3446
T1 sequence (P27487 whole entry): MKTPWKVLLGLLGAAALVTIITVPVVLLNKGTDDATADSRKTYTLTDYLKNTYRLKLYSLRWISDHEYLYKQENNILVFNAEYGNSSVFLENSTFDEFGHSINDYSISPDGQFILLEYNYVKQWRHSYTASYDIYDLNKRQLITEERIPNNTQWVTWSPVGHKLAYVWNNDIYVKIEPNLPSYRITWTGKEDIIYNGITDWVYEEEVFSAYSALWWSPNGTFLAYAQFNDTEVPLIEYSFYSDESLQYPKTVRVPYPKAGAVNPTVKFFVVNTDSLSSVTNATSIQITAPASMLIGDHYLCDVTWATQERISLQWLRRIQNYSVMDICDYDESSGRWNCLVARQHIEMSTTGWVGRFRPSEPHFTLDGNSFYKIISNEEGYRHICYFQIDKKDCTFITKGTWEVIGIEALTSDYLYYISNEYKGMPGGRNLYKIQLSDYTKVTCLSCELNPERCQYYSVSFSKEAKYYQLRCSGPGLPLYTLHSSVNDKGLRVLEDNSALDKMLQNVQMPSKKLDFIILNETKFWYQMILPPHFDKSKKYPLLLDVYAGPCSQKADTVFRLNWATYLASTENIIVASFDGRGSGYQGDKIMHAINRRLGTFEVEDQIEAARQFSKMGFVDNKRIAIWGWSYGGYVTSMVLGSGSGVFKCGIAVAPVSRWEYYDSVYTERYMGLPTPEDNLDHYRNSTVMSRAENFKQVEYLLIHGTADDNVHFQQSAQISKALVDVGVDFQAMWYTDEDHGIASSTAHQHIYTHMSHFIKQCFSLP
Description: DPP-4 proteolysis steady state fluorescence assay with μ-tagged probes. It is filed as in vitro ADME. The conditions noted are these: 5 μM peptide, 2.31 ng/μL DPP-4, DPBS pH 7.6, 27 °C, fluorescence λex 325 nm / λem 390 nm, average of three replicates. As to the method: Phan et al. Supporting Information
4. DPP-4 Proteolysis Assays (Steady State Assays)
A 19 μL solution of 5.3 μM peptide was incubated in the absence or presence of 1 μL of 46.2 ng/μL DPP-4 (Sigma Aldrich, D3446), to final concentrations of 5 μM peptide and 2.31 ng/μL […]
For the PP-based probes (APLEPμ & ASPLEPμ), […]
additional assays were conducted at higher DPP-4 concentration of 4.62 ng/μL to improve the cleavage rate and kinetics of the thioamide probes (Figure S17B). For the μ-tagged probes, the […]
nm on the Tecan M1000 plate reader. Three replicates were performed for each assay to ensure reproducibility. These primary data are shown. At the end of the plate-reader assay, the sample was diluted to a final volume of 170 μL for validation with HPLC. MALDI MS & HPLC analysis of peptide proteolysis by DPP-4 were also done to confirm the cleavage sites, indicated by the slashes (e.g. YP/SKPµ) as summarized in Figures S14-S17, and Tables S4-S7. A Phenomenex Luna® Omega 5 µm PS C18 100 Å analytical HPLC column was used to analyze all samples using the same gradient of 20-25 % B over 35 minutes (Solvent A: 0.1% TFA in Milli-Q water; Solvent B: 0.1% TFA in acetonitrile).
For `COc1ccc2c(C[C@H](NC(=O)[C@@H]3CCCN3C(=O)[C@H](CCCCN)NC(=O)[C@H](CO)NC(=O)[C@@H]3CCCN3C(=S)[C@@H](N)Cc3ccc(O)cc3)C(=O)O)cc(=O)oc2c1` [Y^sPSKPμ] (X1-SKP[Ala(7-MeO-coumarin-4-yl)]-OH), the “t1/2 of cleavage by DPP-4 (μ-labeled probe)” value amounted to 26 min.

The same data set, now with this note: 5 μM peptide, 2.31 ng/μL DPP-4, DPBS pH 7.6, 27 °C, fluorescence λex 325 nm / λem 390 nm, three replicates.
As to `CC[C@H](C)[C@H](NC(=O)[C@@H]1CCCN1C(=S)[C@@H](N)Cc1ccc(O)cc1)C(=O)N[C@@H](CCCCN)C(=O)N1CCC[C@H]1C(=O)N[C@@H](Cc1cc(=O)oc2cc(OC)ccc12)C(=O)O` [Y^SPIKPμ] (X1-IKP[Ala(7-MeO-coumarin-4-yl)]-OH), the “cleaved fold slower than the native NPY1–5 probe Y^SPSKPμ” value was found to be 3 fold.

Consider `COc1ccc2c(C[C@H](NC(=O)[C@@H]3CCCN3C(=O)[C@H](CCCCN)NC(=O)[C@H](CC(C)C)NC(=O)[C@@H]3CCCN3C(=S)[C@@H](N)Cc3ccc(O)cc3)C(=O)O)cc(=O)oc2c1` [Y^SPLKPμ] (X1-LKP[Ala(7-MeO-coumarin-4-yl)]-OH), for which the “cleaved fold slower than the native NPY1–5 probe Y^SPSKPμ” value was found to be 2 fold.
